Reference: ChEMBL document CHEMBL2021779, “Inhibition of hepatitis C virus NS5A by fluoro-olefin based γ-turn mimetics” (Bioorg Med Chem Lett, 2012)

How the values were obtained:
Hepatitis C virus [1] = test: Antiviral activity against Hepatitis C virus genotype 1B by whole cell replicon assay; assay type: functional, organism-based, Hepacivirus hominis
Hepatitis C virus [2] = test: Antiviral activity against Hepatitis C virus genotype 2A by whole cell replicon assay; assay type: functional, organism-based, Hepacivirus hominis
[3] = test system: Hepatitis C virus subtype 1a; test: Antiviral activity against Hepatitis C virus genotype 1A by whole cell replicon assay

SMILES	EC50 (Hepatitis C virus [1]) [nM]	EC50 (Hepatitis C virus [2]) [nM]	EC50 [3] [nM]
COC(=O)N[C@H](/C(F)=C(\C)[C@@H](C)c1ncc(-c2ccc(-c3ccc(-c4cnc([C@H](C)/C(C)=C(\F)[C@@H](NC(=O)OC)C(C)C)[nH]4)cc3)cc2)[nH]1)C(C)C	27.3	397	659
COC(=O)N[C@H](/C(F)=C1\CCC[C@H]1c1ncc(-c2ccc(-c3ccc(-c4cnc([C@@H]5CCC/C5=C(/F)[C@@H](NC(=O)OC)C(C)C)[nH]4)cc3)cc2)[nH]1)C(C)C	0.079	167	189
COC(=O)N[C@H](C(=O)N1CCC[C@H]1c1ncc(-c2ccc(-c3ccc(-c4cnc([C@@H]5CCCN5C(=O)[C@@H](NC(=O)OC)C(C)C)[nH]4)cc3)cc2)[nH]1)C(C)C	[…]	0.063	–
